Experimental data taken from paper PMC6445168, “Design, synthesis and antimalarial activity of novel bis{N-[(pyrrolo[1,2-a]quinoxalin-4-yl)benzyl]-3-aminopropyl}amine derivatives” (Journal of Enzyme Inhibition and Medicinal Chemistry, 2017).

Tests used:
[1] = tested on: L. donovani (MHOM/IN/00/DEVI) promastigotes; assay: In vitro antileishmanial activity on promastigotes, MTT assay; assay type: cell-based; conditions: Leishmania donovani, 72 h incubation, mean ± SD of three independent experiments
Description: L. donovani (MHOM/IN/00/DEVI) used in this study was provided by the CNR Leishmania (Montpellier, France). The effects of the tested compounds on the growth of L. donovani (MHOM/IN/00/DEVI)promastigotes were assessed by MTT assay[41] .Briefly, promastigotes in log-phase in Schneider′s medium supplemented with 20% fetal calf serum (FCS), 2 mM L-glutamine and antibiotics (100 U/mL penicillin and 100 μg/mL streptomycin), were incubated at an average density of 10^6 parasites/mL in sterile 96-well plates with various concentrations of compounds dissolved in DMSO (final concentration less than 0.5% v/v), in duplicate. Appropriate controls treated by DMSO and pentamidine or amphotericin B (reference drugs purchased from Sigma-Aldrich) were added to each set of experiments. After a 72 h incubation period at 27 °C, parasite metabolic activity was determined. Each plate-well was then microscope-examined for detecting possible precipitate formation. 20 μL of MTT 3–(4,5-dimethylthiazol-2-yl)-2,5-diphenyltetrazolium bromide) solution (5 mg/mL) were added to each well followed by incubation for another 4 h. The enzyme reaction was then stopped by addition of 100 μL of 50% isopropanol – 10% sodium dodecyl sulfate[42] .Plates were shaken vigorously (300 rpm) for 10 minutes and the absorbance measured in a plate reader at 570 nm in a BIO-TEK ELx808 Absorbance Microplate Reader. […] IC50 were calculated by non-linear regression analysis processed on doseresponse curves, using TableCurve 2D V5.0 software. IC50 values represent the mean value calculated from three independent experiments.

[2] = tested on: P. falciparum CQ-sensitive strain 3D7; assay: In vitro antiplasmodial activity, SYBR Green I fluorescence-based method, 3D7 strain; assay type: cell-based, Plasmodium falciparum; conditions: for IC50: Plasmodium falciparum, 3D7, 48 h, chloroquine-sensitive strain 3D7, 48 h incubation, read-out: P. falciparum strains IC50 values, 3D7; for Selectivity Index HepG2/3D7: ratio CC50 HepG2 / IC50 3D7
Description: (§1) The in vitro antiplasmodial activities were tested over concentrations ranging from 39 nM to 40 μM against culture-adapted Plasmodium falciparum reference strains 3D7 and W2. […] The parasites were cultivated in RPMI medium (Sigma-Aldrich, Lyon, France) supplemented with 0.5% Albumax I (Life Technologies corporation, Paisley, United Kingdom), hypoxanthine (Sigma-Aldrich), gentamicin (Sigma-Aldrich), and human erythrocytes and were incubated at 37 °C in a candle jar, as described previously. The P. falciparum drug susceptibility test was carried out in 96-well flat bottom sterile plates under a final volume of 250 μL. After a 48 h incubation with the drugs, quantities of DNA in treated and control cultures of parasites in human erythrocytes were compared according to the SYBR Green I (Sigma-Aldrich) fluorescence-based method[38]^,[39]. Briefly, after incubation, plates were frozen at -20 °C until use. They were then left to thaw for 2 h at room temperature and 100 μL of the homogenized culture were transferred to 96-well flat bottom sterile black plates (Nunc Inc) already containing 100 μL of the SYBR Green I lysis buffer (2xSYBR Green, 20 mM Tris base pH 7.5, 5 mM EDTA, 0.008% w/v saponin, 0.08% w/v Triton X-100). […] Plates were incubated for 1 h at room temperature and then read on a fluorescence plate reader (Tecan, Austria) using excitation and emission wavelengths of 485 and 535 nm, respectively.

[3] = Cytotoxicity evaluation, MTT assay; assay type: cell-based, human; conditions: human, HepG2 cells (hepatocarcinoma cell line, ATCC HB-8065); HepG2, 72 h incubation, mean ± SD of three independent experiments
Description: These assays were performed toward the human HepG2 cell line (HepG2 CC50). […] These cells express many of the hepatocyte-specific metabolic enzymes, thus enabling the cytotoxicity of tested product metabolites to be evaluated. […] Duplicate assays were performed for each sample. Each plate-well was then microscope-examined for detecting possible precipitate formation before the medium was aspirated from the wells. 100 μL of MTT solution (0.5 mg/mL in medium without FCS) were then added to each well. […] After this time, the MTT solution was removed and DMSO (100 μL) was added to dissolve the resulting blue formazan crystals. Plates were shaken vigorously (300 rpm) for 5 minutes. The absorbance was measured at 570 nm with 630 nm as reference wavelength spectrophotometer using a BIO-TEK ELx808 Absorbance Microplate Reader. DMSO was used as blank and doxorubicin (Sigma Aldrich) as positive control. Cell viability was calculated as percentage of control (cells incubated without compound). The 50% cytotoxic concentration was determined from the dose-response curve by using the TableCurve 2D V5.0 software (Systat Software, San Jose, CA).

[4] = tested on: P. falciparum CQ-resistant strain W2; assay: In vitro antiplasmodial activity, SYBR Green I fluorescence-based method, W2 strain; assay type: cell-based, Plasmodium falciparum; conditions: for IC50: Plasmodium falciparum, chloroquine-resistant strain W2, 48 h incubation, read-out: P. falciparum strains IC50 values, W2; for Selectivity Index HepG2/W2: ratio CC50 HepG2 / IC50 W2
Description: as §1

IC50 [1] [nM] | IC50 [2] [nM] | IC50 [4] [nM] | SMILES | Selectivity Index HepG2/3D7 [2] | CC50 at 72 h [3] [nM] | Selectivity Index HepG2/W2 [4]
1140 ± 200 | 800 ± 120 | 3400 ± 740 | c1ccc2c(c1)nc(-c1ccc(CNCCCN3CCN(CCCNCc4ccc(-c5nc6ccccc6n6cccc56)cc4)CC3)cc1)c1cccn12 [1c, Bis{N-[4-(pyrrolo[1,2-a]quinoxalin-4-yl)benzyl]-3-aminopropyl}piperazine] | 1.56 | 1250 ± 300 | 0.37
4260 ± 100 | 260 ± 30 | 490 ± 160 | CCOc1ccn2c1c(-c1ccc(CNCCCN(C)CCCNCc3ccc(-c4nc5ccccc5n5ccc(OCC)c45)cc3)cc1)nc1ccccc12 [1j, Bis{N-[4–(3-ethoxypyrrolo[1,2-a]quinoxalin-4-yl)benzyl]-3-aminopropyl}methylamine] | 7.50 | 1950 ± 300 | 3.98
2800 ± 100 | 1070 ± 160 | 120 ± 10 | CN(CCCNCc1cccc(-c2nc3ccccc3n3cccc23)c1)CCCNCc1cccc(-c2nc3ccccc3n3cccc23)c1 [1m, Bis{N-[3-(pyrrolo[1,2-a]quinoxalin-4-yl)benzyl]-3-aminopropyl}methylamine] | 1.81 | 1940 ± 1000 | 16.17
3710 ± 400 | 370 ± 40 | 50 ± 10 | c1cc(CNCCCN2CCN(CCCNCc3cccc(-c4nc5ccccc5n5cccc45)c3)CC2)cc(-c2nc3ccccc3n3cccc23)c1 [1n, Bis{N-[3-(pyrrolo[1,2-a]quinoxalin-4-yl)benzyl]-3-aminopropyl}piperazine] | 5.49 | 2030 ± 1200 | 40.6
3510 ± 100 | 180 ± 20 | 206 ± 30 | COc1ccc2nc(-c3cccc(CNCCCN(C)CCCNCc4cccc(-c5nc6ccc(OC)cc6n6cccc56)c4)c3)c3cccn3c2c1 [1o, Bis{N-[3–(8-methoxypyrrolo[1,2-a]quinoxalin-4-yl)benzyl]-3-aminopropyl}methylamine] | 8.33 | 1500 ± 900 | 7.28
 | 7220 ± 770 | 750 ± 100 | c1ccc(-c2nc3ccccc3n3cc(CNCCCN4CCN(CCCNCc5cc6c(-c7ccccc7)nc7ccccc7n6c5)CC4)cc23)cc1 [1r, Bis{N-[(4-phenylpyrrolo[1,2-a]quinoxalin-2-yl)methyl]-3-aminopropyl}piperazine] |  |  | 

The next lines start with the compound.

SMILES | IC50 [1] [nM] | IC50 [2] [nM] | IC50 [4] [nM] | Selectivity Index HepG2/3D7 [2] | CC50 at 72 h [3] [nM] | Selectivity Index HepG2/W2 [4]
c1ccc2c(c1)nc(-c1ccc(CNCCCNCCCNCc3ccc(-c4nc5ccccc5n5cccc45)cc3)cc1)c1cccn12 [1a, Bis{N-[4-(pyrrolo[1,2-a]quinoxalin-4-yl)benzyl]-3-aminopropyl}amine] | 1000 ± 200 | 3420 ± 540 | 850 ± 150 | 0.53 | 1810 ± 100 | 2.13
CN(CCCNCc1ccc(-c2nc3ccccc3n3cccc23)cc1)CCCNCc1ccc(-c2nc3ccccc3n3cccc23)cc1 [1b, Bis{N-[4-(pyrrolo[1,2-a]quinoxalin-4-yl)benzyl]-3-aminopropyl}methylamine] |  | 1200 ± 200 | 4200 ± 650 | 1.30 | 1560 ± 600 | 0.37
COc1ccc2c(c1)nc(-c1ccc(CNCCCN(C)CCCNCc3ccc(-c4nc5cc(OC)ccc5n5cccc45)cc3)cc1)c1cccn12 [1d, Bis{N-[4–(7-methoxypyrrolo[1,2-a]quinoxalin-4-yl)benzyl]-3-aminopropyl}methylamine] | 3890 ± 300 | 4140 ± 30 | 340 ± 40 | 0.62 | 2570 ± 700 | 7.56
COc1ccc2nc(-c3ccc(CNCCCN(C)CCCNCc4ccc(-c5nc6ccc(OC)cc6n6cccc56)cc4)cc3)c3cccn3c2c1 [1f, Bis{N-[4–(8-methoxypyrrolo[1,2-a]quinoxalin-4-yl)benzyl]-3-aminopropyl}methylamine] | 4250 ± 200 | 5850 ± 70 | 130 ± 10 | 0.58 | 3380 ± 900 | 26
COc1ccc2nc(-c3ccc(CNCCCN4CCN(CCCNCc5ccc(-c6nc7ccc(OC)cc7n7cccc67)cc5)CC4)cc3)c3cccn3c2c1 [1g, Bis{N-[4–(8-methoxypyrrolo[1,2-a]quinoxalin-4-yl)benzyl]-3-aminopropyl}piperazine] | 1070 ± 100 | 2220 ± 250 | 360 ± 40 | 0.96 | 2140 ± 1400 | 5.94
COc1cccc2nc(-c3ccc(CNCCCN(C)CCCNCc4ccc(-c5nc6cccc(OC)c6n6cccc56)cc4)cc3)c3cccn3c12 [1h, Bis{N-[4–(9-methoxypyrrolo[1,2-a]quinoxalin-4-yl)benzyl]-3-aminopropyl}methylamine] | 2070 ± 20 | 250 ± 40 | 440 ± 110 | 9.76 | 2440 ± 400 | 5.54
CCOc1ccn2c1c(-c1ccc(CNCCCN3CCN(CCCNCc4ccc(-c5nc6ccccc6n6ccc(OCC)c56)cc4)CC3)cc1)nc1ccccc12 [1k, Bis{N-[4–(3-ethoxypyrrolo[1,2-a]quinoxalin-4-yl)benzyl]-3-aminopropyl}piperazine] | ≥ 10000 | 190 ± 10 | 90 ± 10 | 7.79 | 1480 ± 500 | 16.44
c1ccc(-c2cc3c(-c4ccc(CNCCCN5CCN(CCCNCc6ccc(-c7nc8ccccc8n8cc(-c9ccccc9)cc78)cc6)CC5)cc4)nc4ccccc4n3c2)cc1 [1l, Bis{N-[4–(2-phenylpyrrolo[1,2-a]quinoxalin-4-yl)benzyl]-3-aminopropyl}piperazine] |  | 8960 ± 690 | 1390 ± 130 |  |  | 
COc1ccc2nc(-c3cccc(CNCCCN4CCN(CCCNCc5cccc(-c6nc7ccc(OC)cc7n7cccc67)c5)CC4)c3)c3cccn3c2c1 [1p, Bis{N-[3–(8-methoxypyrrolo[1,2-a]quinoxalin-4-yl)benzyl]-3-aminopropyl}piperazine] | 3390 ± 400 | 40 ± 4 | 170 ± 30 | 39.25 | 1570 ± 800 | 9.23
c1ccc2c(c1)cc1c(-c3ccc(CNCCCN4CCN(CCCNCc5ccc(-c6nc7ccccc7n7c6cc6ccccc67)cc5)CC4)cc3)nc3ccccc3n12 [1q, Bis{N-[4-(indolo[1,2-a]quinoxalin-6-yl)benzyl]-3-aminopropyl}piperazine] | 570 ± 100 | 1000 ± 50 |  |  | 1560 ± 700 | 
C[C@@H]1[C@H](O)[C@@H](C)/C=C/C=C/C=C/C=C/C=C/C=C/C=C/[C@H](O[C@@H]2O[C@H](C)[C@@H](O)[C@H](N)[C@@H]2O)C[C@@H]2O[C@](O)(C[C@@H](O)C[C@@H](O)[C@H](O)CC[C@@H](O)C[C@@H](O)CC(=O)O[C@H]1C)C[C@H](O)[C@H]2C(=O)O [Amphotericin B, reference compound] | 100 ± 40 |  |  |  |  | 
